Target: TRPA1 (Homo sapiens, UniProt O75762)
Experiment: Synergy of cinnamaldehyde and zinc on pharmacological activity of TRPA1, in vitro
Text: The trigeminal ingredient may comprise cinnamaldehyde and zinc. The combination provides a minimal flavor impact and is effective to promote a swallowing reflex. Cinnamaldehyde and zinc have a synergy on the pharmacological activity of TRPA1. Using this synergy, the effective amount of cinnamaldehyde can be decreased by supplementing the cinnamaldehyde with small amount of zinc. Consequently, the combination of cinnamaldehyde and zinc can promote a swallowing reflex at concentrations in food that are tolerable both in flavor/taste and in the gastrointestinal tract. Moreover, the synergy only requires a low concentration of zinc (in vitro<1 μM).

Sequence of TRPA1 (O75762 whole entry, species assumed): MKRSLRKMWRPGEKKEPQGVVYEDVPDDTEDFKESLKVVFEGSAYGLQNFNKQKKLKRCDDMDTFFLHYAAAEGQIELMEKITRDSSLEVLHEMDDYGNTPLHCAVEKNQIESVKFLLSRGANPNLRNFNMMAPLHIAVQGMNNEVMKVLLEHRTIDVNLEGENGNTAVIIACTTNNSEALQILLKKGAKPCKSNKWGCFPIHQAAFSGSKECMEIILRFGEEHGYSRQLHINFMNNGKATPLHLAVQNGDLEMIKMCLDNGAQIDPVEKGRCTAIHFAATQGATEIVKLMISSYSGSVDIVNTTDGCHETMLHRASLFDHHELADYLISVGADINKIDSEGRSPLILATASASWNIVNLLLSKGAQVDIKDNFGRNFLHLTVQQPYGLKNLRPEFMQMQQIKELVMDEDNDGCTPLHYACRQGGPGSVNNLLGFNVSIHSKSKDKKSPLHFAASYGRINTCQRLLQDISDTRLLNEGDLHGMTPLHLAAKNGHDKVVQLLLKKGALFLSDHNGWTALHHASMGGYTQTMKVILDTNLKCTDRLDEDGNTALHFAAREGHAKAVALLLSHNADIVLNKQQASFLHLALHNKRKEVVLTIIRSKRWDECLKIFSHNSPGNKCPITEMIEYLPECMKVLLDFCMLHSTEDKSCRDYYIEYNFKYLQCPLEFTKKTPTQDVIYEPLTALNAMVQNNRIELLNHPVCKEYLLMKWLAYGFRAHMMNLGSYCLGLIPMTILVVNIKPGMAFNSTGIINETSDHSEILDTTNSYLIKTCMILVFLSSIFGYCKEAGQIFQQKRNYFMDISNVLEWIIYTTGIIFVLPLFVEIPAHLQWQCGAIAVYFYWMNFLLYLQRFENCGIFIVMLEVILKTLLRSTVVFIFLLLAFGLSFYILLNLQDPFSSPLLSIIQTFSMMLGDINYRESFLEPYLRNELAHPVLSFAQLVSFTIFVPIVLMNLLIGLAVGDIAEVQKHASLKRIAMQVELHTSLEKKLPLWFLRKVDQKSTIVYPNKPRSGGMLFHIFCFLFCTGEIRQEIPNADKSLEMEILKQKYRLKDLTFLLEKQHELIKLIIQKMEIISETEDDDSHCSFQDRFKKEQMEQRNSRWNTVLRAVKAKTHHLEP

With [Zn] [zinc] the “zinc concentration required for synergy with cinnamaldehyde” value was < 1 µM.
